Experimental data reported in patent publication US20230159510A1, “NOVEL PRMT5 INHIBITORS” (AMGEN INC., priority 2020, published 2023).
pIC50: −log10 of the molar value.

Assays:
HCT116 MTAP null cells = test: HCT116 proliferation assay, MTAP null cells (CellTiter-Glo, 6 days); assay type: cell-based; details: HCT116-MTAP null, 144 h, read-out: Protif_ HCT116-MTAP null IC50
In short: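 Luminescent viability signal was measured after continuous drug exposure. Before dosing, cells attached overnight (37° C, 5% CO2) in RPMI 1640 + 10% FBS. Dosing used 1:3 steps over 8 or 9 points, starting at 1 or 10 µM, with DMSO-only wells as control.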

PRMT5/MEP50 = PRMT5/MEP50 (Homo sapiens, UniProt O14744); test: MTase-Glo methyl transferase assay, Method B (FL-Histone H2A, 1 µM MTA, 1 h pre-incubation); assay type: biochemical; design: purchased Reaction Biology Corp RD-11-292; details: read-out: PRMT5 MTase Glo Ki (nM, Meth. B)
Chain of PRMT5/MEP50 (O14744 2-637 limits assumed): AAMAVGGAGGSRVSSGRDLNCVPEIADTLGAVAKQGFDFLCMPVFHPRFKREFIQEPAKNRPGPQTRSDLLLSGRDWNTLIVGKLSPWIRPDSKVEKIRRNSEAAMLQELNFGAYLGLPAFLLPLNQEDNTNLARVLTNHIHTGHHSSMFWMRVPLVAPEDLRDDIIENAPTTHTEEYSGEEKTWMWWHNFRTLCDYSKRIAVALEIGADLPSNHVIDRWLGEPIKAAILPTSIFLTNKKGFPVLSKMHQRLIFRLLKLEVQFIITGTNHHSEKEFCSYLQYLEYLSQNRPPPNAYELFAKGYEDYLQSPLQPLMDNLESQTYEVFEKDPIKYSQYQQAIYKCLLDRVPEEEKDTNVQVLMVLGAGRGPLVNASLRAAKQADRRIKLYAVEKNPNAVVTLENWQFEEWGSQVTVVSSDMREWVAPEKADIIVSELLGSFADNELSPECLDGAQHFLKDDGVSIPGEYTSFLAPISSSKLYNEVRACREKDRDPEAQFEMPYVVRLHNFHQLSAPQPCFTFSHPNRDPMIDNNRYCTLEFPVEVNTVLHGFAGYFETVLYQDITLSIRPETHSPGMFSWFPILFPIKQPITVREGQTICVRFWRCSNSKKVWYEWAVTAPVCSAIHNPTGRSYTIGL
Chain of PRMT5/MEP50 (Q9BQA1 2-342 partner limits assumed): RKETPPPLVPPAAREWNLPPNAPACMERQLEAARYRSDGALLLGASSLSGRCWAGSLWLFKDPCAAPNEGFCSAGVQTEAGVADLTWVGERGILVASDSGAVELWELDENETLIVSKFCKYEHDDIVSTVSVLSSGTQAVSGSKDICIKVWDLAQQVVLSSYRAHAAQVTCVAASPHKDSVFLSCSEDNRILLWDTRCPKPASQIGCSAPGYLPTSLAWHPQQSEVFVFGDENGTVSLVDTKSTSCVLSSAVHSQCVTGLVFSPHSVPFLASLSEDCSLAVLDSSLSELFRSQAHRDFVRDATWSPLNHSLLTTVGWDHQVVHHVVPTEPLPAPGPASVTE
Experimental: Method B: The PRMT5 inhibitory activity of test compounds was determined using the MTase-Glo™ assay (Promega), which monitors the product (S-adenosyl homocysteine or SAH) of methyltransferase reactions. The PRMT5 MTase-Glo assay was conducted in a 384-well white ProxiPlate (PerkinElmer) in a total volume of 16 µL. The PRMT5 enzymatic reaction (in 8 µL) contained 4 nM PRMT5/MEP50 (Reaction Biology Corp, catalog no.: RD-11-292), 5 µM S-adenosyl methionine (SAM, Promega), 2.5 µM FL-Histone H2A (BPS Bioscience, catalog no.: 52021), 1 µM 5′-methylthioadenosine (MTA, Sigma) and ½ log serially diluted compounds in a reaction buffer of 50 mM Tris (pH 8.0), 50 mM NaCl, 0.01% Tween 20, 0.01% BSA, and 1 mM TCEP. Test compounds were pre-incubated with PRMT5/MEP50, SAM, and MTA for 1 hour before addition of FL-Histone H2A to initiate the PRMT5 reaction. The reaction was allowed to proceed for 20 hours at room temperature and was then terminated by addition of 1 µL of 9X MTase-Glo™ Reagent (Promega). After a 30-minute incubation at room temperature, 8 µL of MTase-Glo™ Detection Solution (Promega) was added and the plate was incubated at room temperature for an additional 30 minutes. The light signal corresponding to the amount of SAH produced by the PRMT5 reaction was subsequently measured using an Envision multimode reader (PerkinElmer). IC50 and KI values were obtained by analyzing dose-response curves using GraphPad Prism®.

SMILES | pIC50 (HCT116 MTAP null cells) | Ki (PRMT5/MEP50) [nM]
C#CCN(Cc1ccc(C(F)(F)F)cn1)C(=O)c1ccc2nc(N)c(C)cc2c1 [Example 655, 2-amino-3-methyl-N-prop-2-ynyl-N-[[5-(trifluoromethyl)-2-pyridyl]methyl] quinoline-6-carboxamide] | 6.26 | 4 to 9
Cc1cc2cc(C(=O)N(Cc3ccc(C(N)=O)nc3)Cc3ccc(C(F)(F)F)cn3)ccc2nc1N [Example 637, 2-amino-N-[(6-carbamoyl-3-pyridyl)methyl]-3-methyl-N-[[5-(trifluoromethyl)-2-pyridyl]methyl] quinoline-6-carboxamide] | < 6.00 | 5.2
Cc1cc2cc(C(=O)N(Cc3ccc(O)cc3)Cc3ccnc4[nH]ccc34)ccc2nc1N [Example 688, 2-amino-N-[(4-hydroxyphenyl)methyl]-3-methyl-N-(1H-pyrrolo[2,3-b]pyridin-4-ylmethyl)quinoline-6-carboxamide] | 6.62 | 1.41
Cc1cc2cc(C(=O)N(Cc3ccc(-c4cc[nH]n4)cc3)Cc3ccc(C(F)(F)F)cn3)ccc2nc1N [Example 647, 2-amino-3-methyl-N-[[4-(IH-pyrazol-3-yl)phenyl]methyl]-N-[[5-(trifluoromethyl)-2-pyridyl]methyl] quinoline-6-carboxamide] | 6.49 | 4.11
Cc1cc2cc(C(=O)N(Cc3cccc(-c4ncc[nH]4)c3)Cc3ccc(C(F)(F)F)cn3)ccc2nc1N [Example 650, 2-amino-N-[ [3-(1 H-imidazol-2-yl)phenyl]methyl] -3-methyl-N-[ [5-(trifluoromethyl)-2-pyridyl]methyl] quinoline-6-carboxamide] | 6.43 | 2.21
C#CC(C)N(Cc1ccc(C(F)(F)F)cn1)C(=O)c1ccc2nc(N)c(C)cc2c1 (stereo not shown) [Example 656, 2-amino-3-methyl-N-(1-methylprop-2-ynyl)-N-[[5-(trifluoromethyl)-2-pyridyl]methyl] quinoline-6-carboxamide] | 6.68 | 5.28
CCn1ncc2c1CCCC2N(Cc1ccc(C(F)(F)F)cn1)C(=O)c1ccc2nc(N)c(C)cc2c1 (stereo not shown) [Example 673, 2-amino-N-(1-ethy1-4,5,6,7-tetrahydroindazol-4-yl)-3-methyl-N-[[5-(trifluoromethyl)-2-pyridyl]methyl] quinoline-6-carboxamide] | 7.02 | 5.32
Cc1cc2cc(C(=O)N(Cc3cccc(-n4ccnn4)c3)Cc3ccc(C(F)(F)F)cn3)ccc2nc1N [Example 651, 2-amino-3-methyl-N-[[3-(triazol-1-yl)phenyl]methyl] -N-[ [5-(trifluoromethyl)-2-pyridyl]methyl] quinoline-6-carboxamide] | 6.51 | 3 to 9
Cc1cc2cc(C(=O)N(Cc3ccc(C(F)(F)F)cn3)C3CCc4cn[nH]c4C3)ccc2nc1N (stereo not shown) [Example 671, 2-amino-3-methyl-N-(4,5,6,7-tetrahydro-1 H-indazol-6-yl)-N-[[5-(trifluoromethyl)-2-pyridyl]methyl] quinoline-6-carboxamide] | 6.74 | 6.82
COc1ccnc2c1CCCC2N(Cc1ccc(C(F)(F)F)cn1)C(=O)c1ccc2nc(N)c(C)cc2c1 (stereo not shown) [Example 666, 2-amino-N-(4-methoxy-5,6,7,8-tetrahydroquinolin-8-yl)-3-methyl-N-[[5-(trifluoromethyl)-2-pyridyl]methyl] quinoline-6-carboxamide] | 7.39 | 3.93
CCC(C1CCOCC1)N(Cc1ccc(C(F)(F)F)cn1)C(=O)c1ccc2nc(N)c(C)cc2c1 (stereo not shown) [Example 681, 2-amino-3-methyl-N-(1-tetrahydropyran-4-ylpropyl)-N-[[5-(trifluoromethyl)-2-pyridyl]methyl] quinoline-6-carboxamide] | 6.62 | 4.87
Cc1cc2cc(C(=O)N(Cc3ccc(C(F)(F)F)cn3)C3CCc4[nH]cnc4C3)ccc2nc1N (stereo not shown) [Example 670, 2-amino-3-methyl-N-(4,5,6,7-tetrahydro-1H-benzimidazol-5-yl)-N-[[5-(trifluoromethyl)-2-pyridyl]methyl] quinoline-6-carboxamide] | 6.07 | 5.15
Cc1cc2cc(C(=O)N(Cc3ccc(C(F)(F)F)cn3)Cc3ccccc3-n3ccnc3)ccc2nc1N [Example 653, 2-amino-N-[(2-imidazol-1-ylphenyl)methyl]-3-methyl-N-[[5-(trifluoromethyl)-2-pyridyl]methyl] quinoline-6-carboxamide] | 6.55 | 2.79
Cc1cc2cc(C(=O)N(CCC3CC3)Cc3ccc(C(F)(F)F)cn3)ccc2nc1N [Example 695, 2-amino-N-(2-cyclopropylethyl)-3-methyl-N-[[5-(trifluoromethyl)-2-pyridyl]methyl] quinoline-6-carboxamide] | 6.12 | 6.3
Cc1cc2cc(C(=O)N(Cc3ccc(N4CCCC4)cc3)Cc3ccc(C(F)(F)F)cn3)ccc2nc1N [Example 646, 2-amino-3-methyl-N-[(4-pyrrolidin-1-ylphenyl)methyl]-N-[[5-(trifluoromethyl)-2-pyridyl]methyl] quinoline-6-carboxamide] | 6.07 | 6.83

Second part, the compound after the results:

pIC50 (HCT116 MTAP null cells) | Ki (PRMT5/MEP50) [nM] | SMILES
7.48 | 4.58 | COc1cccc2c1OCCC2N(Cc1ccc(C(F)(F)F)cn1)C(=O)c1ccc2nc(N)c(C)cc2c1 (stereo not shown) [Example 630, 2-amino-N-(8-methoxychroman-4-yl)-3-methyl-N-[[5-(trifluoromethyl)-2-pyridyl]methyl] quinoline-6-carboxamide]
6.29 | 15.3 | Cc1cc2cc(C(=O)N(Cc3ccc(C(F)(F)F)cn3)C3Cc4ccccc4C3O)ccc2nc1N (stereo not shown) [Example 674, 2-amino-N-(1-hydroxyindan-2-yl)-3-methyl-N-[[5-(trifluoromethyl)-2-pyridyl]methyl] quinoline-6-carboxamide]
6.70 | 2.19 | Cc1cc2cc(C(=O)N(Cc3ccc(C(F)(F)F)cn3)C(C)CC3CC3)ccc2nc1N (stereo not shown) [Example 696, 2-amino-N-(2-cyclopropyl-1-methylethyl)-3-methyl-N-[[5-(trifluoromethyl)-2-pyridyl]methyl] quinoline-6-carboxamide]
6.03 | 6.84 | Cc1cc2cc(C(=O)N(Cc3ccc(C(F)(F)F)cn3)C(C)CC(C)C)ccc2nc1N (stereo not shown) [Example 634, 2-amino-N-(1,3-dimethylbutyl)-3-methyl-N-[[5-(trifluoromethyl)-2-pyridyl]methyl] quinoline-6-carboxamide]
6.74 | 1.68 | Cc1cc2cc(C(=O)N(Cc3cccc(-n4ccnc4)c3)Cc3ccc(C(F)(F)F)cn3)ccc2nc1N [Example 648, 2-amino-N-[(3-imidazol-1-ylphenyl)methyl]-3-methyl-N-[[5-(trifluoromethyl)-2-pyridyl]methyl] quinoline-6-carboxamide]
6.44 | 2.8 | Cc1cc2cc(C(=O)N(Cc3ccc(C(F)(F)F)cn3)Cc3ccc[nH]c3=O)ccc2nc1N [Example 627, 2-amino-3-methyl-N-((2-oxo-1,2-dihydropyridin-3-yl)methyl)-N-((5-(trifluoromethyl)pyridin-2-yl)methyl)quinoline-6-carboxamide]
< 6.00 | 5.93 | Cc1cc2cc(C(=O)N(Cc3ccc(N4CCCC4=O)cc3)Cc3ccc(C(F)(F)F)cn3)ccc2nc1N [Example 645, 2-amino-3-methyl-N-[[4-(2-oxopyrrolidin-1-yl)phenyl]methyl] -N-[[5-(trifluoromethyl)-2-pyridyl]methyl] quinoline-6-carboxamide]
6.96 | 1.56 | Cc1cc2cc(C(=O)N(Cc3ccnc4[nH]ccc34)Cc3ccnn3C)ccc2nc1N [Example 687, 2-amino-3-methyl-N-[(2-methylpyrazol-3-yl)methy1] -N-(1 H-pyrrolo [2,3-b]pyridin-4-ylmethyl)quinoline-6-carboxamide]
7.03 | 1.68 | Cc1cc2cc(C(=O)N(Cc3ccccc3O)Cc3ccnc4[nH]ccc34)ccc2nc1N [Example 690, 2-amino-N-[(2-hydroxyphenyl)methyl]-3-methyl-N-(1H-pyrrolo[2,3-b]pyridin-4-ylmethyl)quinoline-6-carboxamide]
7.62 | 3.9 | Cc1cc2cc(C(=O)N(Cc3ccc(C(F)(F)F)cn3)C3CCCc4ncccc43)ccc2nc1N (stereo not shown) [Example 667, 2-amino-3-methyl-N-(5,6,7,8-tetrahydroquinolin-5-yl)-N-[[5-(trifluoromethyl)-2-pyridyl]methyl] quinoline-6-carboxamide]
6.04 | 13.1 | Cc1cc2cc(C(=O)N(Cc3ccc(C(F)(F)F)cn3)C(C)C(C)O)ccc2nc1N (stereo not shown) [Example 641, 2-amino-N-(2-hydroxy-1-methylpropyl)-3-methyl-N-[[5-(trifluoromethyl)-2-pyridyl]methyl] quinoline-6-carboxamide]
